{
  "source": "ChEMBL document CHEMBL5506059",
  "about": "“Cyanomethylquinolones as a New Class of Potential Multitargeting Broad-Spectrum Antibacterial Agents” (J Med Chem, 2024)",
  "key": {"[1]": {"tested_on": "Staphylococcus aureus", "assay": "Antibacterial activity against Staphylococcus aureus ATCC 25923 assessed as inhibition of bacterial growth incubated for 24 hrs", "assay_type": "functional"}, "[2]": {"tested_on": "Klebsiella pneumoniae", "assay": "Antibacterial activity against Klebsiella pneumoniae clinical isolate assessed as inhibition of bacterial growth incubated for 24 hrs", "assay_type": "functional"}, "[3]": {"tested_on": "Acinetobacter baumannii", "assay": "Antibacterial activity against Acinetobacter baumannii clinical isolate assessed as inhibition of bacterial growth incubated for 24 hrs", "assay_type": "functional"}, "[4]": {"tested_on": "Pseudomonas aeruginosa", "assay": "Potency index, ratio of ciprofloxacin MIC to test compound MIC for antibacterial activity against Pseudomonas aeruginosa clinical isolate assessed as inhibition of bacterial growth incubated for 24 hrs", "assay_type": "functional"}, "[5]": {"tested_on": "Pseudomonas aeruginosa", "assay": "Potency index, ratio of clinafloxacin MIC to test compound MIC for antibacterial activity against Pseudomonas aeruginosa clinical isolate assessed as inhibition of bacterial growth incubated for 24 hrs", "assay_type": "functional"}, "[6]": {"tested_on": "Staphylococcus aureus", "assay": "Antibacterial activity against methicillin-resistant Staphylococcus aureus ATCC 43300 assessed as inhibition of bacterial growth incubated for 24 hrs", "assay_type": "functional"}, "[7]": {"tested_on": "Staphylococcus aureus", "assay": "Antibacterial activity against Staphylococcus aureus ATCC 6538 assessed as inhibition of bacterial growth incubated for 24 hrs", "assay_type": "functional"}, "[8]": {"tested_on": "Staphylococcus aureus", "assay": "Antibacterial activity against Staphylococcus aureus CMCC(B)26003 assessed as inhibition of bacterial growth incubated for 24 hrs", "assay_type": "functional"}, "[9]": {"tested_on": "Streptococcus pyogenes", "assay": "Potency index, ratio of norfloxacin MIC to test compound MIC for antibacterial activity against Streptococcus pyogenes ATCC 19615 assessed as inhibition of bacterial growth incubated for 24 hrs", "assay_type": "functional"}, "[10]": {"tested_on": "Enterococcus faecalis", "assay": "Potency index, ratio of ciprofloxacin MIC to test compound MIC for antibacterial activity against vancomycin-resistant Enterococcus faecalis clinical isolate p1-2007225053 assessed as inhibition of bacterial growth incubated for 24 hrs", "assay_type": "functional"}, "[11]": {"tested_on": "Erythrocyte", "assay": "Hemolytic activity in human Red blood cells assessed as concentration required for 5% hemolysis measured after 1.5 hrs by absorbance based assay", "assay_type": "toxicity, cell-based"}, "[12]": {"assay": "Cytotoxicity against HUVEC cells assessed as cell viability at 25 ug/ml measured after 24 hrs by MTT assay relative to control", "assay_type": "toxicity, cell-based", "conditions": "human, at 25 µg/mL, read-out: Activity"}, "[13]": {"tested_on": "Staphylococcus aureus", "assay": "Resistance development in methicillin resistant Staphylococcus aureus assessed as increase in MIC measured after 20 days", "assay_type": "functional, organism-based", "conditions": "time 20.0 day"}, "[14]": {"tested_on": "Pseudomonas aeruginosa", "assay": "Resistance development in Pseudomonas aeruginosa assessed as increase in MIC measured after 20 days", "assay_type": "functional, organism-based", "conditions": "time 20.0 day"}, "[15]": {"tested_on": "Staphylococcus aureus", "assay": "Induction of morphological changes in methicillin resistant Staphylococcus aureus assessed as appearance of wrinkled bacterial surface at 2 ug/ml incubated for 3 hrs by SEM analysis", "assay_type": "functional, organism-based", "conditions": "dose 2.0 µg/ml"}, "[16]": {"tested_on": "Staphylococcus aureus", "assay": "Induction of morphological changes in methicillin resistant Staphylococcus aureus assessed as appearance of concaved bacterial surface at 2 ug/ml incubated for 3 hrs by SEM analysis", "assay_type": "functional, organism-based", "conditions": "dose 2.0 µg/ml"}, "[17]": {"tested_on": "Staphylococcus aureus", "assay": "Induction of morphological changes in methicillin resistant Staphylococcus aureus assessed as appearance of blurred intracellular boundaries with disintegration of bacterial structure at 2 ug/ml incubated for 3 hrs by SEM analysis", "assay_type": "functional, organism-based", "conditions": "dose 2.0 µg/ml"}, "[18]": {"tested_on": "Cell membrane", "assay": "Induction of cell membrane depolarization in Pseudomonas aeruginosa assessed as increase in fluorescence intensity at 1 ug/ml measured for 30 mins by DiSC35 dye based fluorescence analysis", "assay_type": "cell membranes", "conditions": "dose 1.0 µg/ml"}, "[19]": {"tested_on": "Cell membrane", "assay": "Induction of cell membrane damage in methicillin-resistant Staphylococcus aureus assessed as increase in nucleic acid leakage at 0 to 2 ug/ml incubated for 12 hrs by optical density based microplate reader analysis", "assay_type": "cell membranes", "conditions": "dose 0-2 µg/ml"}, "[20]": {"tested_on": "Staphylococcus aureus", "assay": "Antibacterial activity against methicillin resistant Staphylococcus aureus infected in female ICR mouse assessed as log reduction in bacterial load at 20 mg/kg pre-infected with bacteria for 24 hrs followed by compound administration on wound site every 6 hrs for 2 times and measured 36 hrs post infection", "assay_type": "functional", "conditions": "time 12 hrs"}},
  "note": "The source made the active and inactive calls. The rule behind the calls is not given here.",
  "data": [
    {"smiles": "N#CCc1cc2c(cc1F)c(=O)c(C(=O)O)cn2C1CC1", "values": [
      {"measurement": "MIC", "setting": "[1]", "result": 4, "unit": "µg/mL"},
      {"measurement": "MIC", "setting": "[2]", "result": 1, "unit": "µg/mL"},
      {"measurement": "MIC", "setting": "[3]", "result": 0.25, "unit": "µg/mL"},
      {"measurement": "Ratio", "setting": "[4]", "result": 8},
      {"measurement": "Ratio", "setting": "[5]", "result": 2},
      {"measurement": "MIC", "setting": "[6]", "result": 0.5, "unit": "µg/mL"},
      {"measurement": "MIC", "setting": "[7]", "result": 0.5, "unit": "µg/mL"},
      {"measurement": "MIC", "setting": "[8]", "result": 0.125, "unit": "µg/mL"},
      {"measurement": "Ratio", "setting": "[9]", "result": 128},
      {"measurement": "Ratio", "setting": "[10]", "result": 2},
      {"measurement": "HC5", "setting": "[11]", "result": "> 10000", "unit": "µg/mL"},
      {"measurement": "viability at 24 h, 25 ug/ml", "setting": "[12]", "result": "> 90", "unit": "%"},
      {"measurement": "Activity", "setting": "[13]", "result": "inactive"},
      {"measurement": "Activity", "setting": "[14]", "result": "inactive"},
      {"measurement": "Activity", "setting": "[15]", "result": "Active"},
      {"measurement": "Activity", "setting": "[16]", "result": "Active"},
      {"measurement": "Activity", "setting": "[17]", "result": "Active"},
      {"measurement": "Activity", "setting": "[18]", "result": "Active"},
      {"measurement": "Activity", "setting": "[19]", "result": "Active"},
      {"measurement": "log(activity)", "setting": "[20]", "result": "~4"}
    ]}
  ]
}
